Measurements published in patent US8017576B2, “Methods and compositions to treat mucositis” (The University of Chicago, priority 2005, dated 2011).
Where no end group is shown, it is not given here.

Columns and labels:
[1] = test system: human colonic Caco2 (C2) cell monolayers; assay: Tight junction recovery after low-calcium disruption, ZO-1 confocal microscopy; format: cell-based; conditions: low-calcium medium (3 μM) 1 hour, assessed 2 hours after addition; AMP peptide 8 μg/ml, KGF-1 100 ng/ml, EGF 100 ng/ml
Description: The AMP77-97 peptide prevented decreases in TJ proteins and epithelial integrity seen after treatment of human colonic Caco2 (C2) cell monolayers with the oxidant monochloramine, which disrupts intercellular junctions (FIG. 2; C,D). These cells were exposed to low-calcium medium (3 μM) for 1 hr to disrupt TJs, and then allowed to recover in medium containing AMP77-97 peptide, epidermal growth factor (EGF) or keratinocyte growth factor (KGF-1) which are known epithelial cell mitogens that might facilitate recovery of disrupted TJs. […] At the molecular level, AMP77-97 peptide facilitates the formation of TJs by enhancing translocation of several proteins (protein kinase C-zeta, Par6, Cdc42, ECT2 and Par3) from the cytosol into TJ domains.
Localization of the tight junction protein ZO-1 was monitored by indirect immunofluorescence laser scanning confocal microscopy in confluent monolayers of C2 cells. […] To disrupt tight junctions, cells were switched to low-calcium medium (3 μM) for 1 hour. Then a growth factor at a known mitogenic concentration was added to the medium, and 2 hours later its effect on tight junction formation was assessed by confocal microscopy. Vehicle, AMP peptide (8 μg/ml), KGF-1 (100 ng/ml), and EGF (100 ng/ml) were compared.

[2] = test system: BDF-1 mice; assay: Study 1: epithelial thickening of oral mucosal surfaces in mice; format: in vivo; conditions: Study 1, mice
Description: (§1) The capacity of the AMP77-97 peptide to induce epithelial thickening of oral mucosal surfaces in mice and hamsters was studied to determine if these animals could be used to evaluate the potential of AMP77-97 peptide in the treatment of oral mucositis. In Study 1, female BDF-1 mice (n=8) and Syrian golden hamsters (n=8) were given daily subcutaneous injections of saline, mouse AMP77-97 peptide at 5 mg/kg, or 25 mg/kg for five days. […] There also appeared to be an increase in both hyperplasia and hyperkeratosis with increasing dose (more prevalent/pronounced in the animals receiving 25 mg/kg than those receiving 5 mg/kg) and duration of dosing (there were some effects seen at 2 days, but were more readily seen after 5 consecutive days). The effect was more easily observed on the dorsal than the ventral surface of the tongue.

[3] = test system: hamster cheek pouch; assay: Study 6: radiation-induced cheek pouch mucositis, topical dosing; format: in vivo; conditions: each of the hamster cheek pouch studies and the mouse model
Description: In a separate test of efficacy (Study 6), AMP77-97 peptide was administered topically into the hamster cheek pouch (n=32). Doses of 0.5, 5 or 50 mg/kg AMP77-97 peptide in PBS were placed in the pouch three times daily from days −5 to −1 before radiation and 1 to 15 after radiation.
Acute Radiation-induced Mucositis. Oral mucositis was induced in hamsters by administering a single dose of radiation of 40 Gy. On day 0, under anesthesia (intraperitoneal injection of ketamine [160 mg/kg] and xylazine [8 mg/kg]), the left buccal pouch was everted, fixed, and radiated while the rest of the animal was shielded with lead cover. Radiation was generated using a 160-kV potential (18.75-ma) source at a focal distance of about 21 cm, hardened with a 3-mm Al filtration system. Ionizing radiation was targeted at the left buccal pouch mucosa at a rate of 1.32 Gy/minute.
Mucositis Evaluation: The progression of mucositis was monitored daily for both models. Every other day starting on day 6 postirradiation, animals were anesthetized using inhalation anesthesia, and the left buccal pouch was everted and photographed. At the conclusion of the study's clinical phase, film was developed, and resulting photos were randomly numbered and then scored in blinded fashion by two observers. […] Severity of oral mucositis (OM) was calculated using the scores per treatment group on each observation day (mean±SE). […]

[4] = test system: Syrian golden hamsters; assay: Study 1: epithelial thickening of oral mucosal surfaces in hamsters; format: in vivo, hamster; conditions: Study 1, hamsters
Description: as §1

[5] = test system: BDF-1, C3H/OuJ, C3H/HeN, C57Bl/6 and Balb c mice; assay: Study 2: thickening of oral epithelium in five mouse strains; format: in vivo; conditions: Study 2, five mouse strains
Source text: In Study 2, the effect of AMP77-97 peptide on thickening in the oral epithelium was compared in five different strains of mice. […] Hyperkeratosis was again observed in the esophagus of BDF-1 mice, and was also seen in C3H/HeN mice.

[6] = test system: BDF-1 mice; conditions: mouse, in vivo
Description: AMP77-97 peptide (25 mg/kg, s.c.) was administered 5 days before and 10 days after radiation of the tongue in the BDF-1 mouse model of oral mucositis. Photomicrographs were prepared 10 days after radiation. Tissue from control irradiated mice treated with vehicle (saline) show substantial epithelial and connective tissue cell loss in both compartments compared to normal mouse tongue.
In Study 3, mucositis was induced in BDF-1 mice (n=40) by administering a single dose of radiation of 30 Gy to the snout. To evaluate the effect of AMP77-97 peptide in this setting of radiation-induced injury of the epithelial and connective tissue compartments of the tongue, mouse AMP77-97 peptide (25 mg/kg) was administered once daily subcutaneously before and after radiation (days −5 to 10; radiation on day 0). […] The evaluation was performed on day 10 when mucositis injury is at its peak. This effect on connective tissue supported that AMP77-97 peptide has beneficial effects on multiple cell and tissue types damaged by radiation.

Substance: EGF: epidermal growth factor, known epithelial cell mitogen [reference compound]
- formation of new tight junctions / localization of ZO-1 [1]: persistent separation of cells with TJ disruption and apparent loss of ZO-1

Substance: LDALVKEKKLQGKGPGGPPPK [AMP77-97 peptide]
- toxicity (weight gain, mortality) [2]: no evidence of any toxicity
- toxicity as measured by weight loss or mortality [3]: no signs of toxicity
- toxicity (weight gain, mortality) [4]: no evidence of any toxicity
- toxicity (weight gain, mortality) [5]: no evidence of any toxicity
- toxicity [6]: no evidence of any toxicity
